Compound `O=C(Nc1cccc(-c2ncno2)c1)Oc1ccc([N+](=O)[O-])cc1` came in with a melting point of 195 to 197 °C.
In the case of `CC(=C(C#N)N=CN(C)C)N1CCCC1`, the melting point is 49 to 53 °C.
With `COc1cc(CCNC(=O)c2ccccc2)cc2c1OC(C)(C)C2` the figure was 137 to 138 °C; with `O=S(=O)(c1ccc(Nc2nccc(Nc3ccc(F)cc3)n2)cc1)N(CCNCC(F)(F)F)C1CCN(Cc2ccccc2)CC1`, 137 to 138 °C; with `Cc1c(-c2ccccc2)c2cc(Cl)cc3c2n1CC3`, 202 to 204 °C.
With `Cc1cc(C)cc(N(CCO)Cc2ccc3nc(NCCCN4CCOCC4)n(Cc4nc(C)c(C)nc4C)c3c2)c1` the figure was 140 °C.
The figure for `CN1CCSC1=NC(=O)CCC(=O)N=C1SCCN1C` is 181 to 183 °C; for `N#Cc1ccc2c(c1)OCC21C(=O)N(Cc2ccccn2)c2ccccc21` (stereo not drawn) it is 151 to 153 °C; for `CC(=O)NCC1CN(c2cc(F)c(N3CCC(n4ccnn4)C(F)C3)c(F)c2)C(=O)O1` (stereo not drawn) it is 176 to 178 °C.
`CCOC(=O)CCCOc1ccc(S(=O)(=O)n2c(=O)[nH]c3cc(Cl)ccc3c2=O)cc1` yielded a melting point of 167 to 169 °C.
The figure for `O=c1ccn(CCO)c(C(O)c2ccc3c(c2)OCO3)c1OCc1ccccc1` (stereo not drawn) is 195 to 196 °C; for `CCC1(C)OC1COc1ccc(C(=O)c2ccccc2)cc1` (stereo not drawn) it is 66 to 67 °C.
The figure for `C#CCS(=O)c1c(O)cc(C)oc1=O` (stereo not drawn) is 134 °C; for `Nc1nc(N)c(N=O)c(OCC2CC=CCC2)n1` (stereo not drawn) it is 237 °C; for `O=C(O)c1ccc(F)cc1Nc1ccc(I)cc1Cl` it is 238 to 239 °C.
The figure for `CN(Cc1sc2c(=O)c(C(=O)NCc3ccc(Cl)cc3)cn(C)c2c1COCC[Si](C)(C)C)CC(O)c1ccc2ccccc2n1` (stereo not drawn) is 163 to 166 °C; for `CCCc1nc2c(N)nc3cc(OCCCN4CCCS4(=O)=O)ccc3c2n1CC(C)C` it is 142 to 144 °C; for `C=CCOc1nc2ccccc2c2ncc(C(=O)OCC)c(=O)n12` it is 191 to 195 °C.
Turning to `CC(=O)Nc1c(F)ccc2nc(C)ccc12`, the melting point is 232 to 235 °C.
`CCC(=O)NC(=S)NCC1CC2c3cccc4[nH]cc(c34)CC2N(C)C1` (stereo not drawn) displayed a melting point of 225 to 226 °C.
With `CCCC=NNc1cc2c(nn1)CCN(C(=O)OCC)C2` the figure was 142 to 146 °C; with `CC(C)c1cccc(C(C)C)c1NC(=O)NC1CC(C)(C)c2ccccc2C1(C)C` (stereo not drawn), 180 to 181 °C; with `COC(=O)c1cccc2c(=O)c3c(I)cccc3[nH]c12`, 239 to 241 °C.
The figure for `CCCCCCCCCCCCc1ccc(S(=O)(=O)Nc2nnc(CC(=O)O)s2)cc1` is 194 to 195 °C; for `O=C(O)COc1ccc(SCc2ccc(OCc3ccc(Cl)cc3)cc2)c2c1CCC2` it is 170 to 172 °C; for `Cn1c2ccccc2c(=NN=C2NCCS2)c2c(Cl)cccc21` it is 206 to 207 °C.
The figure for `CC(C)OC(=O)c1cc(-n2c(=O)[nH]c3c(c2=O)CCCC3)c(F)cc1Cl` is 203 to 205 °C; for `CCOC(=O)c1c(Br)cnn1-c1c(Cl)cccc1Cl` it is 62 to 65 °C.
Turning to `CCNC(=O)Cc1ccc(C(=O)c2ccc(Cl)cc2)n1C`, the melting point lay within 187 to 188 °C.
The figure for `CC(C)(C)c1cc2c(c(C(C)(C)C)c1)O[Si](c1ccccc1)(c1ccccc1)Oc1c(cc(C(C)(C)C)cc1C(C)(C)C)S2` is 202 to 205 °C.
With `CCN(C(=O)C(F)(F)F)c1ccc(C(=O)Nc2ccc3ccc(OC)nc3n2)cc1` the figure was 150 °C; with `CCOCc1cc2cc(Cl)ccc2oc1=Nc1ccc(Cl)cc1`, 126 to 128 °C.
The figure for `Nc1cc(F)c(OC(F)F)cc1[N+](=O)[O-]` is 95 to 97.5 °C; for `CCCCCCCCCCCOc1ccc(O)cc1C=O` it is 66 to 67 °C.
Turning to `CC1(C)CCC(C)(C)c2cc(-c3cc(-c4ccc(C(N)=O)cc4-c4ccc(O)cc4)ccc3-c3ccccc3)ccc21`, the melting point is 231 °C.
The figure for `O=c1[nH]c(COc2ccccc2)nc2nccnc12` is 220 to 221 °C; for `CC(C)c1cccc(C(C)C)c1NC(=O)Nc1nnn[nH]1` it is above 240 °C.
With `NC(=O)N(O)Cc1ccc(N2CCC3(CC2)OCCO3)cc1` the figure was 153 to 154 °C; with `CCn1cc(C(=O)O)c(=O)c2cc(Cl)c(N3CCN(CCO)CC3)cc21`, 215 °C; with `Nc1nc2ccccc2n[n+]1[O-]`, 266 to 268 °C.
In turn, `c1cnc2c(N3CCC(N4CCN(c5cccc6[nH]ccc56)CC4)CC3)cccc2c1` showed a melting point of 256 °C.
`O=C(c1ccco1)N1CCN[C@@H]2CCCC[C@@H]21`: the melting point lay in the range of 47 to 50 °C.
The figure for `CC(COc1ccccc1)C1CC=C2C3=C(CCC21C)C1(C)CCC(O)C(C)(C)C1CC3` (stereo not drawn) is 134 to 137 °C; for `O=S(=O)(Oc1ccc(S(=O)(=O)c2ccc(OS(=O)(=O)c3ccccc3)cc2)cc1)c1ccccc1` it is 133 to 134 °C; for `CC(C)(C)c1cc(CCc2ccc(NC(=O)NC3CCN(Cc4ccccc4)CC3)cc2)cc(C(C)(C)C)c1O` it is 195 to 197 °C.
The compound `COC(=O)c1cc(N=Nc2ccc(S(=O)(=O)Cl)cc2)ccc1O` registered a melting point of 137 to 138 °C.
The figure for `O=S(=O)(CCN1CCCCC1)Nc1cc(C(c2cc(F)ccc2F)S(=O)(=O)c2ccc(Cl)cc2)c(Cl)cn1` (stereo not drawn) is 200 to 203 °C; for `CSc1ncnn1C[C@]1(c2ccc(F)c(F)c2)O[C@@H]1c1ccccc1Cl` (relative stereo) it is 79 to 81 °C.
The figure for `CCCCCCCCCCCCCCCCCCOc1cccc(CC(=O)OC)c1` is 43 to 45 °C; for `Cc1cc(S(=O)(=O)N2c3cc(F)ccc3-n3cccc3C2C)ccc1O` (stereo not drawn) it is 191 to 193 °C.
The figure for `CCOC(=O)C1=C(O)C(C)(CC)CNC1=O` (stereo not drawn) is 196 to 197 °C; for `C(=Cc1cccc2ccccc12)c1ccc(-c2cc3ccccc3o2)cc1` it is 154 to 155 °C; for `Cc1nc2cccc(O)c2o1` it is 152 to 154 °C.
In the case of `O=C(O)c1c[nH]c(Sc2cccc(Cl)c2)c1`, the melting point lay in the range of 134 to 137 °C.
The figure for `O=C(CC1CCCCC1)c1c(O)c2cccnc2n(-c2ccccc2)c1=O` is 231 to 233 °C; for `CN(C)c1ccc(/C=C/c2c(F)cccc2F)c(N)c1` it is 97 to 98 °C.
The figure for `CNC(=O)Nc1snc(N2CCCC2)c1C#N` is 239 °C.
The figure for `CNC(=S)NS(=O)(=O)c1cc(CCNC(=O)/C=C/c2cccs2)ccc1OCCOC(F)(F)F` is 161 to 163 °C; for `COc1cc(C(=O)NC2CN(C)C2)ccc1Nc1ncc2c(n1)N(C1CCCC1)CC(F)(F)C(=O)N2C` it is 157 to 162 °C; for `CC(=O)NC1CCC(=O)C(=CN(C)C)C1` (stereo not drawn) it is 132 to 133 °C.
Compound `N#CC(C(N)=O)c1ccc(F)c(Cl)c1` (stereo not drawn) gave a melting point of 156 to 157 °C.
The figure for `Cc1c(C(=O)OCc2ccccc2)sc(NC(=O)c2ccccc2)c1C(=O)OC(C)(C)C` is 134 to 135 °C; for `Clc1nn2c(-c3ccccc3)nnc2c2ccccc12` it is 172 to 174 °C.

By melting point is commonly meant the temperature of the solid-liquid transition.

The values above are taken from a melting point compilation (Tetko et al.; mined from patent text by program, amines drawn as free bases though some values may be those of a salt).
